From patent US20230365542A1, “Selective Agonists of 5-HT2A Receptor and Methods of Use” (Yale University, priority 2020, published 2023)
Read-outs that look alike come from different tables or passages of the source.

Assays:
5-HT2AR [1] = molecular target: T1, 5-HT2AR (Homo sapiens, UniProt P28223); assay: Calcium flux assay (FLIPR, Fluo-4), 5-HT2AR stable cell line; type: cell-based; settings: for 5-HT2AR Rmax ± S.E.M: value in parentheses
T1 construct: expressed in transfected cells; host or cells: Flp-In 293 T-Rex (tetracycline inducible)
T1 sequence (P28223 whole entry): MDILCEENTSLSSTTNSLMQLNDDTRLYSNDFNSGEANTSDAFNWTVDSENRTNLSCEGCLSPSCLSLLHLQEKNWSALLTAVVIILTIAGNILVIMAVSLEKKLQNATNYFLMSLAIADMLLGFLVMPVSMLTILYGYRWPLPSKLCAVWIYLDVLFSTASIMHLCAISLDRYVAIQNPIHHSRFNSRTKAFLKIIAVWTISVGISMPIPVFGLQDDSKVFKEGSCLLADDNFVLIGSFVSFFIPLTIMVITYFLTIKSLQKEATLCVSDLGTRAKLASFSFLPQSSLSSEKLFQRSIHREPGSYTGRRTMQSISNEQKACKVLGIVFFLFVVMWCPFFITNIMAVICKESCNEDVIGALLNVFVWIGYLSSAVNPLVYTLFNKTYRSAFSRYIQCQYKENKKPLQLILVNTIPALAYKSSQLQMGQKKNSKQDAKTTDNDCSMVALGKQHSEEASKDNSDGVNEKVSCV
Method: (§1) Stable cell lines for 5-HT2AR, 5-HT2BR and 5-HT2CR generated using the Flp-In 293 T-Rex Tetracycline inducible system (Invitrogen). Tetracycline-induced cells were seeded in 384-well poly-L-lysine plates at a density of 10,000 cells/well in DMEM containing 1% dialyzed FBS at least 16-24 hr before the calcium flux assay. On the day of the assay, the cells were incubated (20 ul/well) for 1 hr at 37° C. with Fluo-4 Direct dye (Invitrogen) reconstituted in FLIPR buffer (1×HBSS, 2.5 mM probenecid, and 20 mM HEPES, pH 7.4). After dye loading, cells were placed in a FLIPR^TETRA fluorescence imaging plate reader (Molecular Dynamics). Drug dilutions were prepared at 3× final concentration in drug buffer (1×HBSS, 20 mM HEPES, 0.1% BSA, 0.01% ascorbic acid, pH 7.4) and aliquoted into 384-well plates and placed in the FLIPR^TETRA for drug stimulation. The fluidics module and plate reader of the FLIPR^TETRA were programmed to read baseline fluorescence for 10s (1 read/s), then 10 ul of drug/well was added and read for 5 min (1 read/s). Fluorescence in each well was normalized to the average of the first 10 reads (i.e., baseline fluorescence). Then, the maximum-fold increase, which occurred within the first 60 s after drug addition, was determined and fold over baseline was plotted as a function of drug concentration. Data were normalized to % 5-HT stimulation and analyzed using “log(agonist) vs. response” in GraphPad Prism 9.0.

5-HT2CR [2] = molecular target: T2, 5-HT2CR (Homo sapiens, UniProt P28335); assay: Calcium flux assay (FLIPR, Fluo-4), 5-HT2CR stable cell line; type: cell-based
T2 sequence (P28335 33-458): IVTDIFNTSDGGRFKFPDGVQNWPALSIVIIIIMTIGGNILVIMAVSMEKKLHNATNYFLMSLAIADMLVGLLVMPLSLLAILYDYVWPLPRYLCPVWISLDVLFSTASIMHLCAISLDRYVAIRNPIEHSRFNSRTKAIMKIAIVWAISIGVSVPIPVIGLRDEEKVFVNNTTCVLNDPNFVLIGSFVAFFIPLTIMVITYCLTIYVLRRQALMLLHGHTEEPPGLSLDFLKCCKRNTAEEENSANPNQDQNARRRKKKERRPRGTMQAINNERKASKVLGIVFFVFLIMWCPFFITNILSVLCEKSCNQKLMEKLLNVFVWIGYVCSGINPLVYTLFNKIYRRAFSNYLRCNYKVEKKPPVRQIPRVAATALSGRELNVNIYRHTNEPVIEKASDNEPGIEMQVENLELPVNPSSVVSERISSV
Method: as §1

5-HT2BR [3] = molecular target: T3, 5-HT2BR (Homo sapiens, UniProt P41595); assay: 5-HT2BR binding affinity (Ki), Table 8
T3 construct: expressed in transfected cells; host or cells: Flp-In 293 T-Rex (tetracycline inducible)
T3 sequence (P41595 whole entry): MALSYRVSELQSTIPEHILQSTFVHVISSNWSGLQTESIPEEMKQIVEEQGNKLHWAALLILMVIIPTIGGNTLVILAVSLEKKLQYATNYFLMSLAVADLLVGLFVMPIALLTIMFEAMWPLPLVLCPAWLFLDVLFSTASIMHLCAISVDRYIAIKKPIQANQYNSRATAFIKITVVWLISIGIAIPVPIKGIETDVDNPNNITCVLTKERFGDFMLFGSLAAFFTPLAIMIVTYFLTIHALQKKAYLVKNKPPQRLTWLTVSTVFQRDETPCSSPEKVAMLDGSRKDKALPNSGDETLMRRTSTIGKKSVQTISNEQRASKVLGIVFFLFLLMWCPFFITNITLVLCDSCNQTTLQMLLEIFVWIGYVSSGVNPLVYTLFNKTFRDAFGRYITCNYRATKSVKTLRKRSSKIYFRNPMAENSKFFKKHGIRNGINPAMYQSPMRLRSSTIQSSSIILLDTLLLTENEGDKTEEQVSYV

5-HT2CR [4] = molecular target: T2, 5-HT2CR; assay: 5-HT2CR binding affinity (Ki), Table 8
5-HT2AR [5] = molecular target: T1, 5-HT2AR; assay: 5-HT2AR binding affinity (Ki), Table 8
5-HT2BR [6] = molecular target: T3, 5-HT2BR; assay: Calcium flux assay (FLIPR, Fluo-4), 5-HT2BR stable cell line; type: cell-based; settings: for 5-HT2BR Rmax ± S.E.M: value in parentheses
Method: Stable cell lines for 5-HT2AR, 5-HT2BR and 5-HT2CR generated using the Flp-In 293 T-Rex Tetracycline inducible system (Invitrogen). Tetracycline-induced cells were seeded in 384-well poly-L-lysine plates at a density of 10,000 cells/well in DMEM containing 1% dialyzed FBS at least 16-24 hr before the calcium flux assay. On the day of the assay, the cells were incubated (20 ul/well) for 1 hr at 37° C. with Fluo-4 Direct dye (Invitrogen) reconstituted in FLIPR buffer (1×HBSS, 2.5 mM probenecid, and 20 mM HEPES, pH 7.4). After dye loading, cells were placed in a FLIPR^TETRA fluorescence imaging plate reader ([…]). Drug dilutions were prepared at 3× final concentration in drug buffer (1×HBSS, 20 mM HEPES, 0.1% BSA, 0.01% ascorbic acid, pH 7.4) and aliquoted into 384-well plates and placed in the FLIPR^TETRA for drug stimulation. The fluidics module and plate reader of the FLIPR^TETRA were programmed to read baseline fluorescence for 10s (1 read/s), then 10 ul of drug/well was added and read for 5 min (1 read/s). Fluorescence in each well was normalized to the average of the first 10 reads (i.e., baseline fluorescence). Then, the maximum-fold increase, which occurred within the first 60 s after drug addition, was determined and fold over baseline was plotted as a function of drug concentration. Data were normalized to % 5-HT stimulation and analyzed using “log(agonist) vs. response” in GraphPad Prism 9.0.

[7] = bracketed value below Ki, read-out: 5-HT2BR pKi ± S.E.M (converted)
[8] = bracketed value below Ki, read-out: 5-HT2AR pKi ± S.E.M (converted)
[9] = bracketed value below EC50, read-out: 5-HT2AR pEC50 ± S.E.M (converted)
[10] = bracketed value below EC50, read-out: 5-HT2BR pEC50 ± S.E.M (converted)

| Compound | 5-HT2AR EC50 (5-HT2AR [1]) | 5-HT2CR EC50 (5-HT2CR [2]) | Ki (5-HT2BR [3]; read-out: 5-HT2BR Ki) | Ki (5-HT2CR [4]; read-out: 5-HT2CR Ki) | Ki (5-HT2AR [5]; read-out: 5-HT2AR Ki) | EC50 (5-HT2BR [6]; read-out: 5-HT2BR EC50) | 5-HT2BR Rmax ± S.E.M (5-HT2BR [6]) | EC50 (5-HT2AR [1]; read-out: 5-HT2AR EC50) | 5-HT2AR Rmax ± S.E.M (5-HT2AR [1]) | EC50 (5-HT2CR [2]; read-out: 5-HT2CR EC50) | Ki (5-HT2BR [3]; [7]) | Ki (5-HT2AR [5]; [8]) | Ki (5-HT2CR [4]; bracketed value below Ki, read-out: 5-HT2CR pKi ± S.E.M (converted)) | 5-HT2BR EC50 (5-HT2BR [6]) | 5-HT2CR Rmax ± S.E.M (5-HT2CR [2]; value in parentheses) | EC50 (5-HT2AR [1]; [9]) | EC50 (5-HT2BR [6]; [10]) |
| --- | --- | --- | --- | --- | --- | --- | --- | --- | --- | --- | --- | --- | --- | --- | --- | --- | --- |
| C[C@H]1C=C(c2c[nH]c3ncccc23)CN(CC2CC2)C1 [compound 46, (S)-3-(1-(cyclopropylmethyl)-5-methyl-1,2,5,6-tetrahydropyridin-3-yl)-1H-pyrrolo[2,3-b]pyridine] | antagonist | antagonist | 2140 nM | 0.78 µM | 2440 nM | 1170 nM | (43.8% |  |  |  |  |  |  |  |  |  |  |
| c1cnc2[nH]cc(C3CCCNC3)c2c1 (single isomer, unassigned) [compound 50, 3-(piperidin-3-yl)-1H-pyrrolo[2,3-b]pyridine] |  |  | 620 nM | 2.73 µM | 5250 nM | 680 nM | (47.0% | 1170 nM | (65.1% | > 10 µM |  |  |  |  |  |  |  |
| Cc1ncc(CCN2CC(c3c[nH]c4ncccc34)=C[C@@H](C)C2)cn1 [compound 40, (R)-3-(5-methyl-1-(2-(2-methylpyrimidin-5-yl)ethyl)-1,2,5,6-tetrahydropyridin-3-yl)-1H-pyrrolo[2,3-b]pyridine] | antagonist | antagonist | 4090 nM | 0.84 µM |  | 3820 nM | (54.5% |  |  |  | 3980 nM | 398 nM |  |  |  |  |  |
| CCCCN1CC(c2c[nH]c3ncccc23)=C[C@H](C)C1 [Compound 22, 3-(1-butyl-5-methyl-1,2,5,6-tetrahydropyridin-3-yl)-1H-pyrrolo[2,3-b]pyridine] |  | antagonist | 1970 nM | 7.03 µM | 5270 nM |  |  | 2260 nM | (23.8% |  |  |  | 7.41 µM | antagonist |  |  |  |
| C[C@@H]1C=C(c2c[nH]c3ncccc23)CNC1 [compound 38, (R)-3-(5-methyl-1,2,5,6-tetrahydropyridin-3-yl)-1H-pyrrolo[2,3-b]pyridine] |  |  |  |  | 680 nM |  | (82.9% |  | (90.1% |  | 295 nM |  |  |  | (75.0% |  |  |
| CCCN1CC(c2c[nH]c3ncccc23)=C[C@@H](C)C1 [Compound 23, 3-(5-methyl-1-propyl-1,2,5,6-tetrahydropyridin-3-yl)-1H-pyrrolo[2,3-b]pyridine] |  |  | 1640 nM | > 10 µM | 1220 nM |  |  |  | (65.6% |  | 1660 nM | 1200 nM |  | antagonist |  | 245 nM |  |
| C[C@@H]1C=C(c2cncc(Cl)c2)CN(CC2(O)COC2)C1 [Compound 7, 3-((5′-Chloro-5-methyl-5,6-dihydro-[3,3′-bipyridin]-1(2H)-yl)methyl)oxetan-3-ol] |  |  | 960 nM | > 10 µM | > 10000 nM |  |  | > 10000 nM |  |  |  |  |  | antagonist |  |  |  |
| CCCN1CC(c2cncc(Cl)c2)=C[C@@H](C)C1 [Compound 15, 5′-Chloro-5-methyl-1-propyl-1,2,5,6-tetrahydro-3,3′-bipyridine] |  |  |  | > 10 µM | > 10000 nM | 130 nM | (50.9% | 5000 nM | (42.1% |  | 148 nM |  |  |  |  |  | 123 nM |
| CCCCN1CC(c2cncc(C)c2)=C[C@H](C)C1 (stereo in doubt) [Compound 14, 1-Butyl-5,5′-dimethyl-1,2,5,6-tetrahydro-3,3′-bipyridine] |  |  | 30 nM | > 10 µM | > 10000 nM |  | (71.7% | 1830 nM | (57.3% |  | 30.9 nM |  |  |  |  |  | 28.2 nM |
| C[C@H]1C=C(c2c[nH]c3ncccc23)CN(CCCN(C)C)C1 [compound 32, (S)-N,N-dimethyl-3-(3-methyl-5-(1H-pyrrolo[2,3-b]pyridin-3-yl)-3,6-dihydropyridin-1(2H)-yl)propan-1-amine] | antagonist |  | 9720 nM | > 10 µM | > 10000 nM |  |  |  |  |  |  |  |  | antagonist |  |  |  |
| C[C@@H]1C=C(c2cncc(Cl)c2)CN(CCC2CCCC2)C1 [Compound 19, 5′-chloro-1-(2-cyclopentylethyl)-5-methyl-1,2,5,6-tetrahydro-3,3′-bipyridine] |  |  | 570 nM | > 10 µM | > 10000 nM |  |  | 4310 nM | (34.9% |  |  |  |  | antagonist |  |  |  |
| C[C@@H]1C=C(c2cncc(Cl)c2)CN(C)C1 (stereo in doubt) [Compound 17, 5′-chloro-1,5-dimethyl-1,2,5,6-tetrahydro-3,3′-bipyridine] |  |  |  | > 10 µM | 2100 nM |  | (42.1% |  | (14.9% |  | 30.2 nM |  |  |  |  | 347 nM | 26.9 nM |
| CCCCN1CC(c2c[nH]c3ncccc23)=C[C@@H](C)C1 [Compound 21, 3-(1-butyl-5-methyl-1,2,5,6-tetrahydropyridin-3-yl)-1H-pyrrolo[2,3-b]pyridine] |  |  | 2920 nM | > 10 µM | 2190 nM |  |  | 2160 nM | (12.8% |  | 4570 nM |  |  | antagonist |  |  |  |
| C[C@@H]1C=C(c2c[nH]c3ncccc23)CN(CC2(C)COC2)C1 [compound 25, (R)-3-(5-methyl-1-((3-methyloxetan-3-yl)methyl)-1,2,5,6-tetrahydropyridin-3-yl)-1H-pyrrolo[2,3-b]pyridine] |  |  | 3290 nM | > 10 µM | > 10000 nM | 6380 nM | (44.6% | 4000 nM | (29.5% |  |  |  |  |  |  |  |  |
| C[C@H]1C=C(c2cncc(Cl)c2)CN(CCC2CCCC2)C1 [Compound 20, 5′-chloro-1-(2-cyclopentylethyl)-5-methyl-1,2,5,6-tetrahydro-3,3′-bipyridine] |  |  |  | > 10 µM | 4360 nM | 85 nM | (66.2% | 540 nM | (49.1% |  | 10.7 nM |  |  |  |  |  |  |
| C[C@@H]1C=C(c2c[nH]c3ncccc23)CN(CCCc2cnn(C)c2)C1 [compound 43, (R)-3-(5-methyl-1-(3-(1-methyl-1H-pyrazol-4-yl)propyl)-1,2,5,6-tetrahydropyridin-3-yl)-1H-pyrrolo[2,3-b]pyridine] | antagonist |  | 700 nM | > 10 µM | 670 nM | 790 nM | (39.5% |  |  |  | 692 nM | 661 nM |  |  |  |  |  |
| C[C@@H]1C=C(c2c[nH]c3ncccc23)CN(CCCN(C)C)C1 [compound 31, (R)-N,N-dimethyl-3-(3-methyl-5-(1H-pyrrolo[2,3-b]pyridin-3-yl)-3,6-dihydropyrridin-1(2H)-yl)propan-1-amine] | antagonist |  | > 10000 nM | > 10 µM | > 10000 nM |  |  |  |  |  |  |  |  | antagonist |  |  |  |
| C[C@H]1C=C(c2c[nH]c3ncccc23)CN(CCCc2cnn(C)c2)C1 [compound 44, (S)-3-(5-methyl-1-(3-(1-methyl-1H-pyrazol-4-yl)propyl)-1,2,5,6-tetrahydropyridin-3-yl)-1H-pyrrolo[2,3-b]pyridine] |  |  | 960 nM | > 10 µM | 2370 nM | 360 nM | (56.2% |  | (40.2% |  |  |  |  |  |  | 269 nM | 355 nM |
